Laboratory results reported in patent US10888553B2, “Use of non-transition metal coordinated dipyridoxyl compounds to prevent and treat chemotherapy-induced PSN” (KARLSSON-TUNER INVEST AS, priority 2016, dated 2021).
Where two headings read alike, the source gives them in different places.

Legend:
[1] = Platinum (Pt) urine excretion in rats receiving oxaliplatin i.v. after i.v. mangafodipir, fodipir or saline (Example 2); type: in vivo, Wistar rats; conditions: 0-24 h urine; for recovery of oxaliplatin-derived Pt in urine, % of the administered dose: 26.4 μmol/kg i.v. 5 min before oxaliplatin 2 mg/kg i.v., administered Pt 277.5 μg, saline control 31.3%; for increase in Pt-excretion: versus saline control
Method: 2 male Wistar rats (approximately 250 g) were injected i.v., via one of the tail veins, with 0.25 ml mangafodipir (20 mg/kg; Lot no. 303001, Nycomed Imaging AS) or fodipir (17.4 mg/kg; Lot no. PKJ 1285/113-14, Nycomed Imaging AS), each corresponding to 26.4 μmol/kg. Another control rat received saline instead of mangafodipir or fodipir. […] The rats were then immediately placed in metabolic cages for urine collection over a period of 0-24 hours. The urine samples were thereafter stored at −80° C. until Pt analysis. Before analysis, the samples were thawed and extensively shaken to obtain homogenous samples. A five ml aliquot was taken from each sample and 5 ml concentrated nitric acid was added. The samples were then resolved in a microwave oven and thereafter diluted with distilled water. The Pt content of each sample was analyzed by ICP-MS (Inductively Coupled Plasma Mass Spectrometry). […] This sample was treated in an identical manner to that of the urine samples and analyzed for its Pt content. Results are presented as total 0-24 h urine Pt content, expressed as the total amount, as well as, as percentage of the injected dose.

[2] = system: CT26 colon cancer cells; conditions: cited from earlier work
[3] = Zn^2+ binding to fodipir; cited from earlier work
[4] = Mn^2+ binding to fodipir; cited from earlier work
[5] = Ca^2+ binding to fodipir; cited from earlier work
[6] = relative to mangafodipir; cited from earlier work
[7] = patients, single dose, over a 5-day period; cited from earlier work
[8] = in vivo; cited from earlier work
[9] = cited from earlier work; for Mn^2+ content released from fodipir or its metabolites: intravenous, MRI dose 5-10 μmol/kg
[10] = cited from earlier work
[11] = 10 μmol/kg mangafodipir in 14 of 15 cycles, accumulated dose 140 μmol/kg; patient showed PD-like neurological symptoms; cited from earlier work

For Cc1ncc(COP(=O)(O)O)c(CN(CCN(CC(=O)O)Cc2c(COP(=O)(O)O)cnc(C)c2O)CC(=O)O)c1O [fodipir, N,N′-bis-(pyridoxyl-5-phosphate)-ethylenediamine-N,N′-diacetic acid], the “recovery of oxaliplatin-derived Pt in urine, % of the administered dose” value [1] is given as 43.4%, the “increase in Pt-excretion” value [1] is given as 40.6% and the “effect of fodipir on cell killing in the lower concentration range of oxaliplatin” value ([2]; fodipir 10 μM) is given as “additive effect”. The “cell killing activity of fodipir towards CT26 colon cancer cells” value ([2]; fodipir 100 μM alone) was “almost complete cell killing activity”, the “interference of fodipir with the cancer cell killing ability of oxaliplatin” value ([2]; fodipir 10, 30, 100 μM) was “Neither 10, 30, nor 100 μM fodipir interfered negatively” and the “log formation constant (log KML)” value [3] was 18. For the same compound, the “log formation constant (log KML)” value [4] was 15 and the “log formation constant (log KML)” value [5] was 9.

For Cc1ncc(COP(=O)([O-])O)c(CN(CCN(CC(=O)O)Cc2c(COP(=O)([O-])O)cnc(C)c2O)CC(=O)O)c1O.Cc1ncc(COP(=O)([O-])O)c(CN(CCN(CC(=O)O)Cc2c(COP(=O)([O-])O)cnc(C)c2O)CC(=O)O)c1O.Cc1ncc(COP(=O)([O-])O)c(CN(CCN(CC(=O)O)Cc2c(COP(=O)([O-])O)cnc(C)c2O)CC(=O)O)c1O.Cc1ncc(COP(=O)([O-])O)c(CN(CCN(CC(=O)O)Cc2c(COP(=O)([O-])O)cnc(C)c2O)CC(=O)O)c1O.Cc1ncc(COP(=O)([O-])O)c(CN(CCN(CC(=O)O)Cc2c(COP(=O)([O-])O)cnc(C)c2O)CC(=O)O)c1O.[Ca+2].[Ca+2].[Ca+2].[Ca+2].[Mn+2] [calmangafodipir], the “manganese retention (and brain retention) reduced to” value [6] is listed as “about 50%”.

For O=C(O)C(=O)O.[NH-][C@@H]1CCCC[C@H]1[NH-].[Pt+2] [oxaliplatin], the “Pt dose excreted in feces” value [7] is listed as 2.1%, the “Pt dose excreted in the urine” value [7] is listed as 53.8% and the “terminal Pt half-life in red blood cells (RBC)” value [8] is listed as “about 50 days”. For the same compound, the volume of distribution [8] was “about 600 litres” and the “killing of CT26 cells by oxaliplatin” value ([2]; oxaliplatin alone) was “killed CT26 cells in a concentration-dependent manner”.

In the case of mangafodipir, the “recovery of oxaliplatin-derived Pt in urine, % of the administered dose” value [1] is listed as 33.8%, the “increase in Pt-excretion” value [1] is listed as 8.0% and the “Mn^2+ that stays bound” value ([9]; MRI dose 5-10 μmol/kg injected) is listed as 20%. The “Mn^2+ content released from fodipir or its metabolites” value [9] was “About 80%”, the “Mn^2+ content released from fodipir or its metabolites” value ([9]; listed as Mangafodipir) was “about 80%” and the “mean plasma Mn content” value ([10]; after eight cycles with 5 μmol/kg mangafodipir co-treatment (accumulated 40 μmol/kg), before 11.8±5.5 nM) was 19.8 ± 4.3 nM. For the same compound, the “pre-existing oxaliplatin-induced PSN after combined oxaliplatin and mangafodipir treatment” value ([10]; patients with PSN grade 2 or worse on a 1-3 scale) was “improved” and the “brain MRI finding” value [11] was “increased T1-weighted signal intensity in the basal ganglia”.
